These are literature values, as cited in paper PMC2787808 (Peptides, 2009).

The test system of data set [1] is HT-29 cells. The following applies: ref [2].
Data set [2] relates to G17-Gly binding sites on DLD-1 cells. The settings on record: previous study; ref [11].

For “pGlu-Gly-Pro-Trp-Leu-(Glu)5-Ala-Tyr [G17(1–12)]”, the “Stimulation of proliferation of HT-29 cells” value in data set [1] is listed as “stimulates nonbiphasic proliferation”. Moreover, in data set [2], the “Binding sites and affinity on DLD-1 cells” value is recorded as “binds to two sites”.
